Ten molecules from patent US20230133910A1, “NEW METHOD FOR DETECTING AND QUANTIFYING RNA” (EAST CHINA UNIVERSITY OF SCIENCE AND TECHNOLOGY, priority 2020, published 2023) can be followed below.

Data set [1] is described as follows: Fluorescence activation of IV-39 by base-modified Carrot. Type of data set: biochemical. The conditions noted are these: control buffer. As for the experimental part: (5) Function detection of nucleic acid aptamers Carrot or Carrot mutant nucleic acid aptamer molecules were prepared according to common experimental method (I), 5 μM of nucleic acid aptamer molecules and 1 μM of fluorophore molecules were incubated in detection buffer (40 mM HEPES, pH 7.4, 125 mM KCl, 5 mM MgCl2, 5% DMSO), and Synergy Neo2 multifunctional microplate reader was used for detecting and obtaining the maximum excitation peak and the maximum emission peak of the fluorescence of the nucleic acid aptamer-fluorophore molecule complex. The Synergy Neo2 multifunctional microplate reader was used again for detecting the fluorescence intensity of the aptamer-fluorophore molecule complex under its maximum excitation and emission conditions. Control sample (1 μM of fluorophore molecules without nucleic acid aptamer) was measured under the same condition, and the ratio of fluorescence intensity was calculated. […] By using Synergy Neo2 multifunctional microplate reader, it was detected that the fluorescence intensity of the complex was 5720 when it was excited at 524±10 nm and emitted under the emission condition of 580 nm±10 nm, while fluorescence intensity of the control sample (1 μM of IV-39 fluorophore molecules) under the same detection condition was 20, so the activation multiple of Carrot-1 nuclear acid aptamer to IV-39 fluorophore molecule was 286. […]

Data set [2] concerns tdMCP-NanoLuc-tdMCP fusion protein. The conditions noted are these: 293T/17 cells, 1 μM IV-4, 20 μM Furimazine.
Excerpt: In order to use Carrot to detect RNA-protein interactions, the interaction between phage capsid protein MCP and its binding sequence MS2 RNA was used as an example. […] The cDNAs encoding tdMCP protein (the dimeric form of MCP, SEQ ID No: 32) and NanoLuc protein (SEQ ID No: 33) were synthesized. Primers P29 and P30, P33 and P34 were used to amplify tdMCP gene fragment, respectively. Primers P35 and P36 were used to amplify NanoLuc gene fragment. The obtained fragments were inserted into the HindIII and XhoI sites of pCDNA3.1 hygro(+) to generate pCDNA3.1 hygro(+)-tdMCP-NanoLuc-tdMCP according to the commonly used experimental method (4), the sequence of the fusion protein encoded by which is SEQ ID No:34.
After 24 h of transfection, 1 μM IV-4 fluorophore was added to label Carrot. Imaging was taken immediately after addition of 20 μM Furimazine to the medium.
Data set [3] can be described thus: Fluorescence activation of IV-39 fluorophore by Carrot-1 and Carrot mutants (function detection of nucleic acid aptamers). It is filed as biochemical. The conditions noted are these: for Activation fold: 1 μM IV-39 incubated with 5 μM Carrot-1 mutant RNA. As for the experimental part:
(§1) (5) Function detection of nucleic acid aptamers Carrot or Carrot mutant nucleic acid aptamer molecules were prepared according to common experimental method (I), 5 μM of nucleic acid aptamer molecules and 1 μM of fluorophore molecules were incubated in detection buffer (40 mM HEPES, pH 7.4, 125 mM KCl, 5 mM MgCl2, 5% DMSO), and Synergy Neo2 multifunctional microplate reader was used for detecting and obtaining the maximum excitation peak and the maximum emission peak of the fluorescence of the nucleic acid aptamer-fluorophore molecule complex. The Synergy Neo2 multifunctional microplate reader was used again for detecting the fluorescence intensity of the aptamer-fluorophore molecule complex under its maximum excitation and emission conditions. Control sample (1 μM of fluorophore molecules without nucleic acid aptamer) was measured under the same condition, and the ratio of fluorescence intensity was calculated. […] By using Synergy Neo2 multifunctional microplate reader, it was detected that the fluorescence intensity of the complex was 5720 when it was excited at 524±10 nm and emitted under the emission condition of 580 nm±10 nm, while fluorescence intensity of the control sample (1 μM of IV-39 fluorophore molecules) under the same detection condition was 20, so the activation multiple of Carrot-1 nuclear acid aptamer to IV-39 fluorophore molecule was 286.
In order to detect the fluorescence activation of IV-39 fluorophore by different Carrot mutant, the Carrot-1 sequence was mutated according to Table 1. The Carrot RNA containing different mutations were prepared according to the commonly used experimental method (1). 1 μM IV-39 was incubated with 5 μM Carrot-1 mutant RNA and their fluorescence activation folds were determined according to the commonly used experimental method (5). […] Several Carrot-1 mutants containing 2-5 mutations still retained strong fluorescence activation of IV-39 (>100 times) (Table 3). In summary, many Carrot-1 mutants containing single and multiple mutants still retain the ability to activate the fluorescence of IV-39 fluorophore.

In the next data set the test system is Carrot-1 RNA aptamer. Description: Properties of Carrot-1 RNA aptamer with different fluorophores (spectra, extinction coefficient, quantum yield, activation fold). It is filed as biochemical. The conditions noted are these: for fluorescence intensity: excited at 524±10 nm, emission 580 nm±10 nm, 5 μM Carrot-1 + 1 μM IV-39, or control 1 μM IV-39 alone; for Emmax / Exmax / Extinction coefficient / Quantum yield: fluorophore bound to Carrot-1 RNA aptamer; for Activation fold: fluorophore with Carrot-1 RNA aptamer versus fluorophore alone. As for the experimental part: as §1
In order to detect the spectral properties of the Carrot-IV-39 complex, Carrot-1 (SEQ ID NO: 2) RNA was prepared according to the commonly used experimental method (1). 1 μM IV-39 with 5 μM Carrot-1 was incubated.
Carrot-1 RNA aptamer was prepared according to the commonly used experimental methods (1), and was used to detect the properties of IV-39 analogues upon Carrot binding, including the fluorescence spectrum, extinction coefficient, quantum yield and fluorescence activation fold. From the data shown in the table, Carrot-1 still could activate the fluorescence of IV-39 analogues.

Another data set concerns the target Carrot-1. Description: Binding constant of Carrot-1 and IV-39 by fluorescence titration. The settings on record: 20 nM Carrot-1 incubated with different concentrations of IV-39. As for the experimental part:
In order to detect the binding constant of Carrot-1 and IV-39, 20 nM Carrot-1 was incubated with different concentrations of IV-39 and their fluorescence was determined.

Another data set relates to 293T/17 cells. Description: RNA labeling in mammalian cells using tRNA-Carrot-2 and IV-39. Type of data set: cell-based. From the text: In major imaging experiments of the examples, a Leica SP8 confocal laser microscope was used for photographing, HCXPL APO 63.0×1.47 oil lens and HyD detector were used, and various lasers, such as 405 nm, 457 nm, 476 nm, 488 nm, 497 nm, 514 nm nm, 561 nm and 633 nm, were used for imaging; complexes formed by each Carrot and dye molecules were imaged by laser close to the wavelength corresponding to the maximum excitation peak. For others, GFP used a 488 nm laser; Hoechst and DAPI fluorescence used a 405 nm laser; and Rhodamine used a 561 nm laser.
In order to use Carrot and IV-39 for RNA labeling in mammalian cells, the reported Pepper and Corn aptamer (binding to HBC599 and DFHO fluorophores, respectively) were used as the controls (Chen et al. Nature Biotechnology 2019. 37: 1287-1293; Song et al. Nature Chemical Biology 2017. 13: 1187-1194). The mammalian cell expression plasmids expressing the RNA aptamers were constructed. cDNAs encoding tRNA-Carrot-2 (SEQ ID No: 4), tRNA-Pepper (SEQ ID No: 22) and tRNA-Corn (SEQ ID No: 21) were synthesized and amplified using the primers P7 and P8, and the primers P9 and P10 were used to amplify pEGFP-N1 to remove the promoter and multiple cloning site regions. […] Fluorescence imaging was performed according to the commonly used experimental method (3).

Setting [4] is: complex of 5 μM Carrot-1 and 1 μM IV-39.

As to “Carrot-4: base-modified Carrot, SEQ ID NO: 6, GGGAAGATTGTAAACACGCCGAAAGGCGGACACTTCCC containing 2′-F modification (GGGAAGAUUGUAAACACGCCGAAAGGCGGACACUUCCC; some positions carry 2'-F, which ones are not given here in text)”, the “activation of the fluorescence of IV-39 fluorophore” value in data set [1] is on record as “significantly activate”.
As for “Carrot-1: RNA aptamer with the sequence of SEQ ID NO: 1, General Formula Carrot structure N1AGAUUGUAAACAN14-N15-N16GACACUN23 (GGGAAGAUUGUAAACACGCCGAAAGGCGGACACUUCCC; chemistry not given here)”, the “fluorescence of Carrot-IV-4 complex by luminescence energy transfer (BRET)” value in data set [2] is reported as “could not emit obvious orange-red fluorescence”. In data set [3] (multiple mutations), the Activation fold is listed as 286 fold. The Activation fold in data set [3] (single mutation) was determined as 286 fold. In addition, the “activation multiple of aptamer to IV-39 fluorophore molecule” value in data set [3] (5 μM Carrot-1, 1 μM IV-39, ratio of fluorescence intensity to fluorophore alone) amounted to 286. In addition, in the data set with Carrot-1 RNA aptamer (setting [4]), the maximum emission peak is 580 nm and the maximum excitation peak amounted to 524 nm. Further, in the data set on Carrot-1 RNA aptamer, the fluorescence intensity is on record as 5720.
As to `CN1C(=O)/C(=C/c2ccc(N(C)CCN)cc2)N=C1/C=C/c1cccc(F)c1` [Carrot-1-IV-33], in the data set with Carrot-1 RNA aptamer, the Emmax was found to be 592 nm, the Exmax stood at 519 nm, the Extinction coefficient is 28000 M⁻¹ cm⁻¹ and the Quantum yield was 0.38. The Activation fold in the data set with Carrot-1 RNA aptamer turned out to be 287 fold.
With `CN1CCc2cc(/C=C3N=C(/C=C/c4ccc(F)nc4)N(CCO)C\3=O)ccc21` [Carrot-1-IV-28], in the data set with Carrot-1 RNA aptamer, the Emmax is 579 nm, the Exmax was 476 nm, the Extinction coefficient is 19000 M⁻¹ cm⁻¹ and the Quantum yield is on record as 0.04. Besides, the Activation fold with Carrot-1 RNA aptamer is given as 19 fold.
Turning to `CN1C(=O)/C(=C/c2ccc(N)cc2)N=C1/C=C/c1ccc(C#N)cc1` [Carrot-1-IV-35], in the data set with Carrot-1 RNA aptamer, the Emmax is on record as 619 nm, the Exmax is on record as 527 nm, the Extinction coefficient stood at 21000 M⁻¹ cm⁻¹ and the Quantum yield came out at 0.14. The Activation fold in the data set with Carrot-1 RNA aptamer is recorded as 97 fold.
Consider “Carrot-3: base-modified Carrot, SEQ ID NO: 5, GGGAAGATTGTAAACACGCCGAAAGGCGGACACTTCCC containing deoxyribonucleotide bases (GGGAAGAUUGUAAACACGCCGAAAGGCGGACACUUCCC; some positions are deoxyribonucleotides, which ones are not given here in text)”, for which the “activation of the fluorescence of IV-39 fluorophore” value in data set [1] was “significantly activate”.
In the case of `COCCOCCOCCOCC(=O)OCCN(C)c1ccc(/C=C2N=C(/C=C/c3ccc(C#N)cc3)N(C)C\2=O)cc1` [Carrot-1-IV-31], in the data set with Carrot-1 RNA aptamer, the Emmax was found to be 621 nm, the Exmax was found to be 508 nm, the Extinction coefficient was 24000 M⁻¹ cm⁻¹ and the Quantum yield is given as 0.15. The Activation fold in the data set on Carrot-1 RNA aptamer was 75 fold.
Usually Kd stands for a measure of binding affinity in units of concentration. Read a high Kd as weaker binding. Turning to `CN1C(=O)/C(=C/c2ccc(N(C)CCO)cc2)N=C1/C=C/c1ccccc1` [IV-39], the fluorescence intensity with Carrot-1 RNA aptamer was found to be 20. The molecule also returned an equilibrium dissociation constant (Kd) at Carrot-1 of 58 nM.
For the molecule `CN1C(=O)/C(=C/c2cc(F)c(O)c(F)c2)N=C1/C=C/c1ccccn1` [Carrot-1-IV-38], in the data set on Carrot-1 RNA aptamer, the Emmax is 581 nm, the Exmax is reported as 519 nm, the Extinction coefficient is 26000 M⁻¹ cm⁻¹ and the Quantum yield is recorded as 0.31. Besides, the Activation fold in the data set with Carrot-1 RNA aptamer is on record as 257 fold.

B1: tRNA-Carrot-IV-39: complex of tRNA-Carrot-2 (SEQ ID No: 4) RNA aptamer and IV-39 fluorophore (nucleic acid)
chain: GCCCGGAUAGCUCAGUCGGUAGAGCAGCGGCCGGAAGAUUGUAAACACGCCGAAAGGCGGACACUUCCGGCCGCGGGUCCAGGGUUCAAGUCCCUGUUCGGGCGCCA
modifications: RNA aptamer in complex with IV-39 fluorophore, further chemistry not given here
In the case of B1, the “fluorescence intensity compared with tRNA-Pepper-HBC599 and tRNA-Corn-DFHO complexes” value with 293T/17 cells (0.5 μM IV-39, 0.5 μM HBC599, 10 μM DFHO) is listed as “markedly higher”. Further, in the data set with 293T/17 cells (0.5 μM IV-39, 24 h after transfection, with or without 20 mM Mg2+), the fluorescence in cells result is “bright orange fluorescence”.
